SMILES strings stand for the structures. Some results are limits rather than exact numbers.

This assay addresses T1, human somatostatin receptor subtype 2 (Homo sapiens, UniProt P30874).
T1 construct: expressed in transfected cells
As to the kind of experiment: cAMP functional assay for SSTR2 agonists. In kind it is cell-based. The settings on record: inhibition of cAMP activities via human SST2 receptor (SSTR2), CHO-K1 cells; read-out: EC50. The text has this:
General overview: All five SSTR subtypes are Gi coupled G-protein coupled receptors (GPCRs) that lead to decreases in intracellular cyclic AMP (cAMP) when activated by an agonist. Therefore, measurement of intracellular cAMP levels can be used to assess whether compounds of the invention are agonists of SSTR subtypes (John Kelly, Troy Stevens, W. Joseph Thompson, and Roland Seifert, Current Protocols in Pharmacology, 2005, 2.2.1-2.2). One example of an intracellular cAMP assay is described below. cAMP assay protocol:
Four days prior to the assay, 5,000 Chinese hamster ovary cells (CHO-K1, ATCC #CCL-61) stably expressing the human somatostatin receptor subtype 2 are plated in each well of a 96-well tissue culture-treated plate in Ham's F12 growth media (ThermoFisher #10-080-CM) supplemented with 10% donor bovine serum (Gemini Bio-Products #100-506), 100 U/mL penicillin; 100 ug/mL streptomycin; 2 mM L-glutamine (Gemini Bio-Products #400-110) and 0.2 mg/mL hygromycin B (GoldBio #31282-04-9). The cells are cultured at 37° C., 5% CO2 and 95% humidity. On the day of the assay, the media is aspirated and the cells are treated with 50 μL of 1.6 μM NKH477 (Sigma #N3290) plus various dilutions of compounds of the invention in assay buffer [1× Hank's Balanced Salt Solution (ThermoFisher #SH3058802), 0.5 mM HEPES pH 7.4, 0.1% bovine serum albumin, 0.2 mM 3-Isobutyl-1-methylxanthine (IBMX, VWR #200002-790)]. The cells are incubated for 20 minutes at 37° C. […] The cells are treated with 50 μL of lysis buffer (HRTF cAMP kit, Cisbio). The lysate is transferred to 384-well plates and cAMP detection and visualization antibodies are added and incubated for 1-24 hours at room temperature. The time-resolved fluorescent signal is read with a Tecan M1000Pro multiplate reader. The intracellular cAMP concentrations are calculated by regression to a standard curve and are plotted vs. the concentration of the compounds of the invention and the EC50 of the compounds are calculated using standard methods. All data manipluations are in GraphPad Prism v6.

T1 sequence (P30874 whole entry): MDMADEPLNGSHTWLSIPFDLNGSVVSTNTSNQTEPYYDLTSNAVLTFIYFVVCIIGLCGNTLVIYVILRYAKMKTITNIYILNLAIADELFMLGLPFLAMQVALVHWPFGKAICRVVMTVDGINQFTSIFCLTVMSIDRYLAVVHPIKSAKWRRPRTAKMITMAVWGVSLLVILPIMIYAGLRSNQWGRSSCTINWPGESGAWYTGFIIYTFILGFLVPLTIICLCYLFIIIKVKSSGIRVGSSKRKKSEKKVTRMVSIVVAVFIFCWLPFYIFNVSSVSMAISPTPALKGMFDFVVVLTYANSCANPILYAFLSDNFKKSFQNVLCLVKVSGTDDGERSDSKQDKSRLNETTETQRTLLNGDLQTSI

For the compound `Cc1cc(C)cc(-c2cnc(N)c(C=NOC(C)(C)C)c2N2CCC(N)CC2)c1` [Compound 1-36], the EC50 was 10 to 100 nM.
On to `Cc1cc(Cl)cc(-c2cnc(N)c(C=NOC(C)C)c2N2CCC(N)CC2)c1` [Compound 1-37], for which the half-maximal effective concentration (EC50) is < 10 nM.
For `Cc1cc(Cl)cc(-c2cnc(N)c(C=NOC(C)(C)C)c2N2CCC(N)CC2)c1` [Compound 1-38], the 50% effective concentration (EC50) was < 10 nM.
The figure for `Cc1cc(Cl)cc(-c2cnc(N)c(C=NO)c2N2CCC(N)CC2)c1` [Compound 1-39, 4-(4-aminopiperidin-1-yl)-5-(3-chloro-5-methylphenyl)-3-[(hydroxyimino)methyl]pyridin-2-amine] is > 100 nM; for `CON=Cc1ccc2[nH]c(-c3c(N)ncc(-c4cc(C)cc(F)c4)c3N3CCC(N)CC3)nc2c1` [Compound 1-40, 4-(4-aminopiperidin-1-yl)-5-(3-fluoro-5-methylphenyl)-3-{5-[(methoxyimino)methyl]-1H-1,3-benzodiazol-2-yl}pyridin-2-amine] it is < 10 nM.
Regarding `CON=Cc1cccc2[nH]c(-c3c(N)ncc(-c4cc(C)cc(F)c4)c3N3CCC(N)CC3)nc12` [Compound 1-44, 4-(4-aminopiperidin-1-yl)-5-(3-fluoro-5-methylphenyl)-3-{4-[(methoxyimino)methyl]-1H-1,3-benzodiazol-2-yl}pyridin-2-amine], the EC50 was < 10 nM.
With `COC(=O)Nc1ccc2[nH]c(-c3c(N)ncc(-c4cc(C)cc(F)c4)c3N3CCC(N)CC3)nc2c1` [Compound 1-45, methyl N-{2-[2-amino-4-(4-aminopiperidin-1-yl)-5-(3-fluoro-5-methylphenyl)pyridin-3-yl]-1H-1,3-benzodiazol-5-yl}carbamate], the EC50 was < 10 nM.
On to `CONC(=O)Nc1ccc2[nH]c(-c3c(N)ncc(-c4cc(C)cc(F)c4)c3N3CCC(N)CC3)nc2c1` [Compound 1-46, 1-{2-[2-amino-4-(4-aminopiperidin-1-yl)-5-(3-fluoro-5-methylphenyl)pyridin-3-yl]-1H-1,3-benzodiazol-5-yl}-3-methoxyurea], for which the EC50 was < 10 nM.
On to `Cc1cc(F)cc(-c2cnc(N)c(-c3nc4cnccc4[nH]3)c2N2CCC(N)CC2)c1` [Compound 1-51, 4-(4-aminopiperidin-1-yl)-5-(3-fluoro-5-methylphenyl)-3-{1H-imidazo[4,5-c]pyridin-2-yl}pyridin-2-amine], for which the concentration for a half-maximal effect (EC50) was < 10 nM.
Turning to `Cc1cc(F)cc(-c2cnc(N)c(-c3nc4ncccc4[nH]3)c2N2CCC(N)CC2)c1` [Compound 1-52, 4-(4-aminopiperidin-1-yl)-5-(3-fluoro-5-methylphenyl)-3-{1H-imidazo[4,5-b]pyridin-2-yl}pyridin-2-amine], the EC50 is < 10 nM.
With `Cc1cc(F)cc(-c2cnc(N)c(-c3nc4cc(S(C)(=O)=O)ccc4[nH]3)c2N2CCC(N)CC2)c1` [Compound 1-53, 4-(4-aminopiperidin-1-yl)-5-(3-fluoro-5-methylphenyl)-3-(5-methanesulfonyl-1H-1,3-benzodiazol-2-yl)pyridin-2-amine] the figure was < 10 nM.
Take `Cc1cc(F)cc(-c2cnc(N)c(-c3nc4c(F)cc(OCC#N)cc4[nH]3)c2N2CCC(N)CC2)c1` [Compound 1-60, 2-({2-[2-amino-4-(4-aminopiperidin-1-yl)-5-(3-fluoro-5-methylphenyl)pyridin-3-yl]-4-fluoro-1H-1,3-benzodiazol-6-yl}oxy)acetonitrile]: the EC50 was < 10 nM.
As to `CON=Cc1cc(F)c2[nH]c(-c3c(N)ncc(-c4cc(C)cc(F)c4)c3N3CCC(N)CC3)nc2c1` [Compound 1-61, 4-(4-aminopiperidin-1-yl)-5-(3-fluoro-5-methylphenyl)-3-{7-fluoro-5-[(methoxyimino)methyl]-1H-1,3-benzodiazol-2-yl}pyridin-2-amine], the EC50 is < 10 nM.
In the case of `C#Cc1ccc2[nH]c(-c3c(N)ncc(-c4cc(C)cc(F)c4)c3N3CCC(N)CC3)nc2c1` [Compound 1-65, 4-(4-aminopiperidin-1-yl)-3-(5-ethynyl-1H-1,3-benzodiazol-2-yl)-5-(3-fluoro-5-methylphenyl)pyridin-2-amine], the EC50 was < 10 nM.
Take `C#Cc1cc(F)c2[nH]c(-c3c(N)ncc(-c4cc(C)cc(F)c4)c3N3CCC(N)CC3)nc2c1` [Compound 1-66, 4-(4-aminopiperidin-1-yl)-3-(5-ethynyl-7-fluoro-1H-1,3-benzodiazol-2-yl)-5-(3-fluoro-5-methylphenyl)pyridin-2-amine]: the EC50 was < 10 nM.
In the case of `COc1cc(F)cc(-c2cnc(N)c(-c3nc4cc(F)cc(F)c4[nH]3)c2N2CCC(N)CC2)c1` [Compound 1-67, 4-(4-aminopiperidin-1-yl)-3-(5,7-difluoro-1H-1,3-benzodiazol-2-yl)-5-(3-fluoro-5-methoxyphenyl)pyridin-2-amine], the EC50 was < 10 nM.
On to `Cc1cc(F)cc(-c2cnc(N)c(-c3nc4cc(C#N)cc(F)c4[nH]3)c2N2CCC(N)CC2)c1` [Compound 1-69, 2-[2-amino-4-(4-aminopiperidin-1-yl)-5-(3-fluoro-5-methylphenyl)pyridin-3-yl]-7-fluoro-1H-1,3-benzodiazole-5-carbonitrile], for which the concentration for a half-maximal effect (EC50) is < 10 nM.
As to `CNc1ncc(-c2cc(C)cc(F)c2)c(N2CCC(N)CC2)c1-c1nc2ccc(C#N)cc2[nH]1` [Compound 1-70, 2-[4-(4-aminopiperidin-1-yl)-5-(3-fluoro-5-methylphenyl)-2-(methylamino)pyridin-3-yl]-1H-1,3-benzodiazole-6-carbonitrile], the EC50 is < 10 nM.
As for `CNc1ncc(-c2cc(C)cc(F)c2)c(N2CCC(N)CC2)c1-c1nc2cccc(Cl)c2[nH]1` [Compound 1-72, 4-(4-aminopiperidin-1-yl)-3-(7-chloro-1H-1,3-benzodiazol-2-yl)-5-(3-fluoro-5-methylphenyl)-N-methylpyridin-2-amine], the EC50 is < 10 nM.
Turning to `Cc1cc(F)cc(-c2cnc(N)c(-c3nc4cccc(Cl)c4[nH]3)c2N2CCC(N)CC2)c1` [Compound 1-73, 4-(4-aminopiperidin-1-yl)-3-(7-chloro-1H-1,3-benzodiazol-2-yl)-5-(3-fluoro-5-methylphenyl)pyridin-2-amine], the EC50 is < 10 nM.
As for `CON=Cc1cc(OC)c2[nH]c(-c3c(N)ncc(-c4cc(C)cc(F)c4)c3N3CCC(N)CC3)nc2c1` [Compound 1-76, 4-(4-aminopiperidin-1-yl)-5-(3-fluoro-5-methylphenyl)-3-{7-methoxy-5-[(methoxyimino)methyl]-1H-1,3-benzodiazol-2-yl}pyridin-2-amine], the EC50 was < 10 nM.
The figure for `Nc1ncc(-c2cc(F)cc(Cl)c2)c(N2CCC(N)CC2)c1-c1nc2cc(F)cc(F)c2[nH]1` [Compound 1-77, 4-(4-aminopiperidin-1-yl)-5-(3-chloro-5-fluorophenyl)-3-(5,7-difluoro-1H-1,3-benzodiazol-2-yl)pyridin-2-amine] is < 10 nM.
For `Cc1cc(C)cc(-c2cnc(N)c(-c3nc4cc(F)cc(F)c4[nH]3)c2N2CCC(N)CC2)c1` [Compound 1-78, 4-(4-aminopiperidin-1-yl)-3-(5,7-difluoro-1H-1,3-benzodiazol-2-yl)-5-(3,5-dimethylphenyl)pyridin-2-amine], the EC50 was < 10 nM.
For `Cc1cc(Cl)cc(-c2cnc(N)c(-c3nc4cc(F)cc(F)c4[nH]3)c2N2CCC(N)CC2)c1` [Compound 1-79, 4-(4-aminopiperidin-1-yl)-5-(3-chloro-5-methylphenyl)-3-(5,7-difluoro-1H-1,3-benzodiazol-2-yl)pyridin-2-amine], the half-maximal effective concentration (EC50) was < 10 nM.
Regarding `COc1cc(C)cc(-c2cnc(N)c(-c3nc4cc(F)cc(F)c4[nH]3)c2N2CCC(N)CC2)c1` [Compound 1-80, 4-(4-aminopiperidin-1-yl)-3-(5,7-difluoro-1H-1,3-benzodiazol-2-yl)-5-(3-methoxy-5-methylphenyl)pyridin-2-amine], the EC50 was < 10 nM.
For the compound `Nc1ncc(-c2cc(F)cc(F)c2)c(N2CCC(N)CC2)c1-c1nc2cc(Cl)ccc2[nH]1` [Compound 1-81, 4-(4-aminopiperidin-1-yl)-3-(5-chloro-1H-1,3-benzodiazol-2-yl)-5-(3,5-difluorophenyl)pyridin-2-amine], the EC50 was < 10 nM.
The figure for `Nc1ncc(-c2cc(F)cc(F)c2)c(N2CCC(N)CC2)c1-c1nc2cc(Cl)cc(F)c2[nH]1` [Compound 1-82, 4-(4-aminopiperidin-1-yl)-3-(5-chloro-7-fluoro-1H-1,3-benzodiazol-2-yl)-5-(3,5-difluorophenyl)pyridin-2-amine] is < 10 nM.
For the compound `COc1cc(F)cc2[nH]c(-c3c(N)ncc(-c4cc(C)cc(C)c4)c3N3CCC(N)CC3)nc12` [Compound 1-83, 4-(4-aminopiperidin-1-yl)-5-(3,5-dimethylphenyl)-3-(6-fluoro-4-methoxy-1H-1,3-benzodiazol-2-yl)pyridin-2-amine], the EC50 was < 10 nM.

As a reminder, the EC50 is the concentration giving half of the maximal effect.

The values above are taken from patent publication US11072598B2, “Somatostatin modulators and uses thereof” (CRINETICS PHARMACEUTICALS, INC., priority 2017, dated 2021).
